“Also recorded” adds a separate entry of the source. Where two headings read alike, the source gives them in different places. Peptide text beside a SMILES is read from it.
Columns and labels:
CD8+ cells [1] = assay: Intracellular IFN-γ assay by FACS (ICS) on lymphocytes of immunized mice; type: in vivo, BALB/c mice; conditions: mice immunized with the WT counterpart of the named neo-epitope
Experimental: Intracellular IFN-γ assay by FACS and ELISPOT. Lymphocytes were incubated either with or without 1-10 μg/ml peptide. GolgiPlug (BD Biosciences, San Jose, Calif.) was added 1 h later. After incubation of 12 to 16 h, cells were stained for CD44 (clone IM7), CD4 (clone GK1.5) and CD8 (clone 53-6.7) (BD Biosciences, San Jose, Calif.), fixed and permeabilized using the Cytofix/Cytoperm™ kit (BD Biosciences, San Jose, Calif.), and stained for intracellular IFN-γ using Phycoerythrin-conjugated anti-mouse IFN-γ (clone XMG1.2, BD Biosciences, San Jose, Calif.). Cells were stained with 1 μl antibody/million cells in 50 μl staining buffer (PBS with 1% bovine serum albumin) and incubated for 20 min at 4° C. in the dark, or according to the manufacturer's instructions. Cells without peptide stimulation were used as a negative control, and the values for these controls was very close to the values seen with the negative control peptide. Typically, 95,000-129,000 lymphocytes (14,500-17,000 CD8+CD4− cells) were acquired. The background is consistently very low (10% of the signal).
(§1) All 18 peptides were used to immunize BALB/c mice. The draining lymph nodes (dLNs) of immunized mice were harvested one week after the single immunization, and the cells were stimulated in vitro for 16 h without any added peptide, the mutant peptide used for immunization, or the corresponding wild type peptide. The CD8+ cells were analyzed for activation (CD44+) and effector function (intracellular IFNγ+). (see Materials and Methods regarding the details of FACS analysis.) All possible patterns of immune-reactivity were observed (FIG. 3A): no immune response (12/18), a mutant peptide-specific, i.e. tumor-specific immune response (5/18), and a cross-reactive response between the mutant and corresponding wild type peptides (1/18).

H-2 K^d = target: T1, H-2 K^d (Mus musculus, UniProt P01902); assay: Binding assays: inhibition of binding of a radiolabeled standard peptide to purified MHC molecules
T1 sequence (P01902 22-368): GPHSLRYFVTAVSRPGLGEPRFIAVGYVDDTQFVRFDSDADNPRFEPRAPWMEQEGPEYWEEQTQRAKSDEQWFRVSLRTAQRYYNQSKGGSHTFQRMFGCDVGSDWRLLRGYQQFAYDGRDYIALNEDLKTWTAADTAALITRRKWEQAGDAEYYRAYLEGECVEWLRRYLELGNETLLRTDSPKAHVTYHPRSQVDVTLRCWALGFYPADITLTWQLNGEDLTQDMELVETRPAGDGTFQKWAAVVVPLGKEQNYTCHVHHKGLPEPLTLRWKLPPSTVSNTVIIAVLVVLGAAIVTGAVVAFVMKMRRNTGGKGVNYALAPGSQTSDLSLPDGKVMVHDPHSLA
T1 sequence (P01887 21-119 partner): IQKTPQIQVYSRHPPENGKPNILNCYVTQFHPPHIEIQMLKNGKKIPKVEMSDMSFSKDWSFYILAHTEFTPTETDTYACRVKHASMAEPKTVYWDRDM
Experimental: Binding assays. Binding of peptides to H-2 K^d was determined using quantitative assays based on the inhibition of binding of a radiolabeled standard peptide to purified MHC molecules essentially as described previously. […] Under the conditions utilized, where [label]<[MHC] and IC50≥[MHC], the measured IC50 values are reasonable approximations of the dissociation constant values.

CD8+ cells [2] = assay: IFNγ ELISPOT on CD8+ cells of immunized mice; type: in vivo, BALB/c mice; conditions: for CD8 T cell response of immunized mice: ELISPOT; for ELISpot: mice immunized with mutant peptide
Experimental: For the ELISPOT assays, the negative controls were CD8+ cells from immunized mice without peptide stimulation. […] The magnitude of responses was rated by mean spot numbers per million CD8+ cells: 5-10 (+); 11-20 (++); 21-50 (+++); 51-100(++++) and >100(+++++).
as §1

[3] = WT counterpart peptide, read-out: Measured IC50 for K^d (Mut/WT): WT
[4] = mutant peptide, read-out: Measured IC50 for K^d (Mut/WT): Mut

In the case of `CC[C@H](C)[C@H](NC(=O)[C@H](Cc1ccc(O)cc1)NC(=O)[C@@H](N)[C@@H](C)O)C(=O)N[C@@H](CCCNC(=N)N)C(=O)N1CCC[C@H]1C(=O)N[C@@H](Cc1ccccc1)C(=O)N[C@@H](CCC(=O)O)C(=O)N[C@H](C(=O)N[C@@H](CCCCN)C(=O)N[C@H](C(=O)O)C(C)C)[C@@H](C)O` [Ccdc85c, TYIRP(f/L)ETKV] (H-TYIRPFETKV-OH), the “immunogenicity of WT counterpart (functional effector T cells)” value (CD8+ cells [1]) is reported as “elicited functional effector T cells in vivo”.

In the case of `CSCC[C@H](NC(=O)[C@H](Cc1ccc(O)cc1)NC(=O)[C@@H](N)CO)C(=O)N[C@@H](CC(C)C)C(=O)N[C@@H](CCC(N)=O)C(=O)N[C@@H](C)C(=O)N[C@@H](CC(C)C)C(=O)N[C@@H](CS)C(=O)O` [Tnpo3.4, (sy/LD)MLQALC] (H-SYMLQALC-OH), the IC50 (H-2 K^d) is reported as 0.089 µM.

Compound `CC(C)C[C@H](NC(=O)[C@H](CCCNC(=N)N)NC(=O)[C@@H]1CCCN1C(=O)[C@H](CO)NC(=O)[C@H](CCCNC(=N)N)NC(=O)[C@H](Cc1ccc(O)cc1)NC(=O)[C@H](CCC(N)=O)NC(=O)[C@H](CCCNC(=N)N)NC(=O)[C@H](CCC(N)=O)NC(=O)[C@H](CC(C)C)NC(=O)[C@@H](N)CCCCN)C(=O)O` [Mast2] (H-KLQRQYRSPRL-OH) has an IC50 (H-2 K^d) of 8.51 µM.

`CSCC[C@H](NC(=O)[C@H](CC(C)C)NC(=O)CNC(=O)[C@@H]1CCCN1C(=O)[C@H](Cc1ccccc1)NC(=O)[C@@H](N)C(C)C)C(=O)N[C@@H](CCC(=O)O)C(=O)N[C@@H](CC(C)C)C(=O)O` [Atxn10.2, VFPGLME(l/R)] (H-VFPGLMEL-OH; N-terminus and C-terminus assumed) was tested, and the “CD8 T cell response of immunized mice” value (CD8+ cells [2]; text) was “did not elicit a detectable response at all”, the “CD8 T cell response of immunized mice” value (CD8+ cells [2]; text, listed as Atxn 10.2) was “did not elicit a detectable CD8 response” and the IC50 (H-2 K^d; [3]) was 1.11 µM.

With `CC(C)C[C@H](N)C(=O)N[C@@H](Cc1ccc(O)cc1)C(=O)N[C@@H](CC(=O)O)C(=O)N[C@H](C(=O)N[C@@H](CC(=O)O)C(=O)N[C@@H](C)C(=O)N[C@@H](C)C(=O)N[C@@H](Cc1ccccc1)C(=O)O)C(C)C` [Cpsf2, L(y/D)DVDAAF] (H-LYDVDAAF-OH) the ELISpot (CD8+ cells [2]) was “+++ (21-50 spots/10^6 CD8 = +++)”, the IC50 (H-2 K^d) was over 70 µM and the IC50 (H-2 K^d; [4]) was 1.41 µM.

`CSCC[C@H](NC(=O)[C@@H]1CCCN1C(=O)[C@@H](NC(=O)[C@H](Cc1ccc(O)cc1)NC(=O)[C@@H](N)CC(=O)O)C(C)C)C(=O)N[C@@H](CCC(=O)O)C(=O)N[C@@H](CCC(N)=O)C(=O)N1CCC[C@H]1C(=O)O` [Alkbh6.1, D(y/D)VPMEQP] (H-DYVPMEQP-OH) gave an IC50 (H-2 K^d) of over 70 µM and an IC50 (H-2 K^d; [4]) of 60.9 µM.

`CC[C@H](C)[C@H](NC(=O)[C@H](CS)NC(=O)CNC(=O)[C@H](Cc1c[nH]cn1)NC(=O)[C@H](Cc1ccccc1)NC(=O)CN)C(=O)N[C@@H](Cc1c[nH]cn1)C(=O)N[C@@H](CCC(=O)O)C(=O)N[C@H](C(=O)N[C@@H](CC(C)C)C(=O)O)C(C)C` [Slit3] (H-GFHGCIHEVL-OH) gave an IC50 (H-2 K^d; mutant neo-epitopes, read-out: measured IC50 / affinity for binding to K^d) of about 50 µM.

In the case of `CC(C)C[C@H](NC(=O)[C@H](CCC(=O)O)NC(=O)[C@H](CC(=O)O)NC(=O)[C@H](CCC(=O)O)NC(=O)[C@H](CC(C)C)NC(=O)[C@H](CC(C)C)NC(=O)CNC(=O)[C@H](CCC(N)=O)NC(=O)[C@H](CC(C)C)NC(=O)[C@@H](N)CCC(=O)O)C(=O)O` [Ccdc136] (H-ELQGLLEDEL-OH; N-terminus and C-terminus assumed), the “CD8 T cell response of immunized mice” value (CD8+ cells [2]) is reported as “did not elicit a detectable response at all; also recorded: did not elicit a detectable CD8 response” and the IC50 (H-2 K^d; [3]) is reported as 4.54 µM.

With `CC[C@H](C)[C@H](NC(=O)[C@H](CS)NC(=O)[C@H](CC(C)C)NC(=O)[C@H](C)NC(=O)[C@H](CCC(N)=O)NC(=O)[C@H](CC(C)C)NC(=O)[C@H](CCSC)NC(=O)[C@H](Cc1ccc(O)cc1)NC(=O)[C@@H](N)CO)C(=O)N1CCC[C@H]1C(=O)O` [Tnpo3.3] (H-SYMLQALCIP-OH) the IC50 (H-2 K^d) was 0.111 µM.

In the case of `CC[C@H](C)[C@H](NC(=O)[C@H](C)NC(=O)[C@H](Cc1ccc(O)cc1)NC(=O)[C@H](CCC(N)=O)NC(=O)[C@@H](NC(=O)[C@H](CC(C)C)NC(=O)[C@H](Cc1ccc(O)cc1)NC(=O)[C@@H]1CCCN1)[C@@H](C)O)C(=O)O` [Dhx8.2, P(y/D)LTQYAI] (H-PYLTQYAI-OH; N-terminus and C-terminus assumed), the ELISpot (CD8+ cells [2]) is reported as “+++++ (>100 spots/10^6 CD8 = +++++)”.

For `CC(C)C[C@H](NC(=O)[C@H](CC(=O)O)NC(=O)[C@H](CC(C)C)NC(=O)[C@H](Cc1ccc(O)cc1)NC(=O)[C@@H](N)CCC(=O)O)C(=O)N[C@@H](CCC(N)=O)C(=O)N[C@H](C(=O)N[C@@H](CCC(N)=O)C(=O)NCC(=O)O)[C@@H](C)O` [Zfp236.2, E(y/D)LDLQTQG] (H-EYLDLQTQG-OH), the IC50 (H-2 K^d) was over 70 µM.

With `CC[C@H](C)[C@H](NC(=O)[C@H](C)NC(=O)[C@H](Cc1ccc(O)cc1)NC(=O)[C@H](CCC(N)=O)NC(=O)[C@@H](NC(=O)[C@H](CC(C)C)NC(=O)[C@H](Cc1ccc(O)cc1)NC(=O)[C@@H]1CCCN1)[C@@H](C)O)C(=O)N[C@H](C(=O)N[C@@H](CCSC)C(=O)N[C@@H](CC(C)C)C(=O)O)[C@@H](C)CC` [Dhx8.1] (H-PYLTQYAIIML-OH) the ELISpot (CD8+ cells [2]) was “+++++ (>100 spots/10^6 CD8 = +++++)”, the IC50 (H-2 K^d) was 1.65 µM and the IC50 (H-2 K^d; [4]) was 2.19 µM.

With `CC[C@H](C)[C@H](NC(=O)[C@@H](NC(=O)[C@H](C)NC(=O)[C@H](Cc1ccc(O)cc1)NC(=O)[C@H](CCC(N)=O)NC(=O)[C@@H](NC(=O)[C@H](CC(C)C)NC(=O)[C@H](Cc1ccc(O)cc1)NC(=O)[C@@H]1CCCN1)[C@@H](C)O)[C@@H](C)CC)C(=O)O` [Dhx8.3, P(y/D)LTQYAII] (H-PYLTQYAII-OH) the ELISpot (CD8+ cells [2]) was “+++++ (>100 spots/10^6 CD8 = +++++)”, the IC50 (H-2 K^d) was 1.42 µM and the IC50 (H-2 K^d; [4]) was 0.244 µM.

With `CSCC[C@H](NC(=O)[C@@H]1CCCN1C(=O)[C@@H](NC(=O)[C@H](Cc1ccc(O)cc1)NC(=O)[C@@H](N)CC(=O)O)C(C)C)C(=O)N[C@@H](CCC(=O)O)C(=O)N[C@@H](CCC(N)=O)C(=O)N1CCC[C@H]1C(=O)N[C@@H](CCCNC(=N)N)C(=O)N1CCC[C@H]1C(=O)O` [Alkbh6.3] (H-DYVPMEQPRP-OH; N-terminus and C-terminus assumed) the IC50 (H-2 K^d; [3]) was 23.6 µM.

With `CC[C@H](C)[C@H](NC(=O)[C@H](C)NC(=O)[C@H](Cc1ccc(O)cc1)NC(=O)[C@H](CCC(N)=O)NC(=O)[C@@H](NC(=O)[C@H](CC(C)C)NC(=O)[C@H](Cc1ccc(O)cc1)NC(=O)[C@@H]1CCCN1)[C@@H](C)O)C(=O)N[C@H](C(=O)N[C@@H](CCSC)C(=O)O)[C@@H](C)CC` [Dhx8.4] (H-PYLTQYAIIM-OH) the ELISpot (CD8+ cells [2]) was “+++ (21-50 spots/10^6 CD8 = +++)”, the IC50 (H-2 K^d) was 6.26 µM and the IC50 (H-2 K^d; [4]) was 6.57 µM.

With `CC(C)C[C@H](NC(=O)CNC(=O)[C@H](CC(C)C)NC(=O)[C@H](CC(C)C)NC(=O)[C@H](CO)NC(=O)[C@H](CCCNC(=N)N)NC(=O)[C@H](CCCNC(=N)N)NC(=O)[C@H](CO)NC(=O)[C@H](CO)NC(=O)[C@H](Cc1c[nH]c2ccccc12)NC(=O)[C@@H](N)CO)C(=O)O` [9430016H08Rik] (H-SWSSRRSLLGL-OH) the IC50 (H-2 K^d; WT counterpart peptide, read-out: Measured IC50 for K^d (Mut/WT): WT, class symbol) was over 70 µM.

`CC(C)C[C@H](NC(=O)[C@H](CC(=O)O)NC(=O)[C@H](CC(C)C)NC(=O)[C@H](Cc1ccc(O)cc1)NC(=O)[C@@H](N)CCC(=O)O)C(=O)N[C@@H](CCC(N)=O)C(=O)N[C@H](C(=O)N[C@@H](CCC(N)=O)C(=O)O)[C@@H](C)O` [Zfp236.1, E(y/D)LDLQTQ] (H-EYLDLQTQ-OH) showed an IC50 (H-2 K^d) of over 70 µM.

With `CC(C)C[C@H](NC(=O)[C@H](CCC(=O)O)NC(=O)[C@H](Cc1c[nH]c2ccccc12)NC(=O)[C@H](CS)NC(=O)[C@@H](NC(=O)[C@H](CCC(=O)O)NC(=O)[C@H](CS)NC(=O)[C@H](Cc1ccc(O)cc1)NC(=O)[C@H](C)N)[C@@H](C)O)C(=O)O` [Apc] (H-AYCETCWEL-OH) the ELISpot (CD8+ cells [2]) was “+++++ (>100 spots/106 CD8 = +++++)” and the IC50 (H-2 K^d; [3]) was 0.06 µM.

— patent US11338026B2, “Identification of immunologically protective neo-epitopes for the treatment of cancers” (THE UNIVERSITY OF CONNECTICUT, priority 2014, dated 2022)
